From patent US20240254115A1 (ACONDICIONAMIENTO TARRASENSE, priority 2021, published 2024)

How the values were obtained:
human σ1 receptor = biological target: T1, human σ1 receptor (Homo sapiens, UniProt Q99720); assay: Human σ1 receptor radioligand assay; settings: transfected HEK-293 membranes, 5 nM [3H](+)-pentazocine, 37° C. 120 minutes; + may also stand for 1-50% inhibition at 1 or 10 μM; read-out: Binding σ-1 Ki
T1 construct: expressed in transfected cells; host or cells: HEK-293
How it was run: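 Ki was derived from five test concentrations, or % inhibition was measured at a single 1 or 10 μM dose, against 5 nM [3H](+)-pentazocine. Incubation was 120 min at 37° C in 50 mM Tris-HCl pH 8 with 7 μg HEK-293 membranes, and 10 μM haloperidol set non-specific binding. Bound radioactivity was counted after filtration.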

human σ2/TMEM97 receptor = biological target: T2, human σ2/TMEM97 receptor (Homo sapiens, UniProt Q5BJF2); assay: Binding assay to human σ2/TMEM97 receptor; settings: transfected HEK-293 membranes, 10 nM [3H]-DTG, 25° C. 120 minutes; + may also stand for 1-50% inhibition at 1 or 10 μM; read-out: Binding σ-2 Ki
T2 construct: expressed in transfected cells; host or cells: HEK-293
T2 sequence (Q5BJF2 whole entry): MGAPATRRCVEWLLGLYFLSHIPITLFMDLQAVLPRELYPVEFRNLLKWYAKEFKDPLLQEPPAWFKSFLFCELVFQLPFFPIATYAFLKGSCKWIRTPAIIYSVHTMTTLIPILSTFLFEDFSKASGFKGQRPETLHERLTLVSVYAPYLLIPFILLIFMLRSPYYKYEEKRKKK
How it was run: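 Membranes from transfected HEK-293 cells (15 µg) were incubated with 10 nM [3H]-DTG in 50 mM Tris-HCl pH 8.0 for 120 min at 25 °C, with 10 µM haloperidol defining non-specific binding. Filtration and scintillation counting followed. Compounds tested as % inhibition at 1 or 10 µM, or at five concentrations for Ki.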

T1 sequence (Q99720 whole entry): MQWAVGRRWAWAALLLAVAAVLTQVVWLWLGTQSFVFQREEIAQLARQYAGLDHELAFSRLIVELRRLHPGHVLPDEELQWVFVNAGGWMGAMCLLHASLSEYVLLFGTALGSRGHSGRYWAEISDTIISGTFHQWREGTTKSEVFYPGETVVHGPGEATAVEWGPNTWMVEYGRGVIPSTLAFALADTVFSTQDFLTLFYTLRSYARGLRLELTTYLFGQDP

Row | SMILES | Ki (human σ1 receptor) [nM] | Ki (human σ2/TMEM97 receptor) [nM]
1 | CC(C)(C)CN1CCC2(CC1)CCN(S(=O)(=O)c1ccc(N3CCOC3=O)nc1)CC2 [Example 143, 3-(5-((9-Neopentyl-3,9-diazaspiro[5.5]undecan-3-yl)sulfonyl)pyridin-2-yl)oxazolidin-2-one] | > 1000 | < 100
2 | O=C1OCCN1c1ccc(S(=O)(=O)N2CCC3(CCN(Cc4ccccc4)CC3)C2)cn1 [Example 144, 3-(5-((8-Benzyl-2,8-diazaspiro[4.5]decan-2-yl)sulfonyl)pyridin-2-yl)oxazolidin-2-one] | 100 to 500 | 100 to 500
3 | O=C1OCCN1c1ccc(S(=O)(=O)N2CCC3(CCCN(Cc4ccccc4F)C3)CC2)cn1 [Example 145, 3-(5-((2-(2-Fluorobenzyl)-2,9-diazaspiro[5.5]undecan-9-yl)sulfonyl)pyridin-2-yl)oxazolidin-2-one] | 500 to 1000 | 100 to 500
4 | O=C1OCCN1c1ccc(S(=O)(=O)N2CCC3(CCCN(Cc4cc(F)ccc4F)C3)CC2)cn1 [Example 146, 3-(5-((2-(2,5-Difluorobenzyl)-2,9-diazaspiro[5.5]undecan-9-yl)sulfonyl)pyridin-2-yl)oxazolidin-2-one] | 500 to 1000 | 500 to 1000
5 | O=C1OCCN1c1ccc(S(=O)(=O)N2CCC3(CCCN(Cc4ccccc4)C3)CC2)cn1 [Example 147, 3-(5-((2-Benzyl-2,9-diazaspiro[5.5]undecan-9-yl)sulfonyl)pyridin-2-yl)oxazolidin-2-one] | 500 to 1000 | 100 to 500
6 | CN(Cc1ccccc1)C1CCN(S(=O)(=O)c2ccc(N3CCCC3=O)nc2)CC1 [Example 148, 1-(5-((4-(Benzyl(methyl)ami-no)piperidin-1-yl)sulfonyl)pyridin-2-yl)pyrrolidin-2-one] | 100 to 500 | < 100
7 | O=C1OCCN1c1ccc(S(=O)(=O)N2CCC3(CCCN(CC4CCOCC4)C3)CC2)cn1 [Example 149, 3-(5-((2-((Tetrahydro-2H-pyran-4-yl)methyl)-2,9-diazaspiro[5.5]undecan-9-yl)sulfonyl)pyridin-2-yl)oxazolidin-2-one] | < 100 | 100 to 500
8 | CC(C)(C)CN1CCCC2(CCN(S(=O)(=O)c3ccc(N4CCOC4=O)nc3)CC2)C1 [Example 150, 3-(5-((2-Neopentyl-2,9-diazaspiro[5.5]undecan-9-yl)sulfonyl)pyridin-2-yl)oxazolidin-2-one] | 500 to 1000 | > 1000
9 | N#Cc1ccc(CN2CCCC3(CCN(S(=O)(=O)c4ccc(N5CCOC5=O)nc4)CC3)C2)cc1F [Example 151, 2-Fluoro-4-((9-((6-(2-oxooxazolidin-3-yl)pyridin-3-yl)sulfonyl)-2,9-diazaspiro[5.5]undecan-2-yl)methyl)benzonitrile] | 100 to 500 | < 100
10 | N#Cc1cc(CN2CCCC3(CCN(S(=O)(=O)c4ccc(N5CCOC5=O)nc4)CC3)C2)ccc1F [Example 152, 2-Fluoro-5-((9-((6-(2-oxooxazolidin-3-yl)pyridin-3-yl)sulfonyl)-2,9-diazaspiro[5.5]undecan-2-yl)methyl)benzonitrile] | > 1000 | > 1000
11 | O=C1OCCN1c1ccc(S(=O)(=O)N2CCC3(CCN(CC4CCOCC4)CC3)C2)cn1 [Example 153, 3-(5-((8-((Tetrahydro-2H-pyran-4-yl)methyl)-2,8-diazaspiro[4.5]decan-2-yl)sulfonyl)pyridin-2-yl)oxazolidin-2-one] | < 100 | < 100
12 | CC(C)(C)CCN1CCCC2(CCN(S(=O)(=O)c3ccc(N4CCOC4=O)cn3)CC2)C1 [Example 154, 3-(6-((2-(3,3-Dimethylbutyl)-2,9-diazaspiro[5.5]undecan-9-yl)sulfonyl)pyridin-3-yl)oxazolidin-2-one] | < 100 | < 100
13 | O=C1OCCN1c1ccc(S(=O)(=O)N2CCCC3(CCN(Cc4ccccc4)CC3)C2)cn1 [Example 155, 3-(5-((9-Benzyl-2,9-diazaspiro[5.5]undecan-2-yl)sulfonyl)pyridin-2-yl)oxazolidin-2-one] | < 100 | < 100
